Columns and labels:
[1] = Drug uptake in monkey caudate at 185 to 220 MBq, iv after 10 mins by PET analysis; assay type: ADME, organism-based, Macaca mulatta, Caudate nucleus; details: rhesus monkey, in vivo
Heart [2] = test: Biodistribution in ddY mouse heart at 4.8 MBq/0.1 mL after 15 mins by gamma counting; assay type: ADME, organism-based; details: in vivo, 0.25 h
Spleen = test: Biodistribution in ddY mouse spleen at 4.8 MBq/0.1 mL after 5 mins by gamma counting; assay type: ADME, organism-based; details: in vivo
Blood [3] = test: Biodistribution in ddY mouse blood at 4.8 MBq/0.1 mL after 60 mins by gamma counting; assay type: ADME, organism-based; details: in vivo, 1 h
Liver [4] = test: Biodistribution in ddY mouse liver at 4.8 MBq/0.1 mL after 1 min by gamma counting; assay type: ADME, organism-based; details: in vivo
[5] = Drug uptake in monkey pons at 185 to 220 MBq, iv after 10 mins by PET analysis; assay type: ADME, organism-based, Macaca mulatta; details: rhesus monkey, in vivo
Blood [6] = test: Biodistribution in ddY mouse blood at 4.8 MBq/0.1 mL after 5 mins by gamma counting; assay type: ADME, organism-based; details: in vivo
[7] = Metabolic stability in monkey plasma assessed as unchanged drug level at 185 MBq/0.1 mL, iv after 15 mins; assay type: ADME, organism-based, Macaca mulatta; details: rhesus monkey, read-out: Stability
Mus musculus [8] = organism: Mus musculus; test: Biodistribution in ddY mouse large intestine at 4.8 MBq/0.1 mL after 60 mins by gamma counting; assay type: ADME, organism-based; details: in vivo, 1 h
[9] = Metabolic stability in Sprague-Dawley plasma assessed as unchanged drug level at 37 MBq/0.1 mL, iv after 30 mins; assay type: ADME, organism-based; details: rat, read-out: Stability
Mus musculus [10] = organism: Mus musculus; test: Biodistribution in ddY mouse testis at 4.8 MBq/0.1 mL after 5 mins by gamma counting; assay type: ADME, organism-based; details: in vivo
Lung [11] = test: Biodistribution in ddY mouse lung at 4.8 MBq/0.1 mL after 15 mins by gamma counting; assay type: ADME, organism-based; details: in vivo, 0.25 h
Brain [12] = test: Biodistribution in ddY mouse brain at 4.8 MBq/0.1 mL after 1 min by gamma counting; assay type: ADME, organism-based; details: in vivo
[13] = Drug uptake in monkey caudate assessed as distribution volume ratio at 185 to 220 MBq, iv after 10 to 90 mins by PET analysis; assay type: ADME, organism-based, Macaca mulatta, Caudate nucleus; details: rhesus monkey, in vivo
Mus musculus [14] = organism: Mus musculus; test: Biodistribution in ddY mouse large intestine at 4.8 MBq/0.1 mL after 5 mins by gamma counting; assay type: ADME, organism-based; details: in vivo
Kidney [15] = test: Biodistribution in ddY mouse kidney at 4.8 MBq/0.1 mL after 15 mins by gamma counting; assay type: ADME, organism-based; details: in vivo, 0.25 h
Brain [16] = test: Biodistribution in ddY mouse brain at 4.8 MBq/0.1 mL after 15 mins by gamma counting; assay type: ADME, organism-based; details: in vivo, 0.25 h
Brain [17] = test: Biodistribution in ddY mouse brain at 4.8 MBq/0.1 mL after 5 mins by gamma counting; assay type: ADME, organism-based; details: in vivo
Kidney [18] = test: Biodistribution in ddY mouse kidney at 4.8 MBq/0.1 mL after 1 min by gamma counting; assay type: ADME, organism-based; details: in vivo
Mus musculus [19] = organism: Mus musculus; test: Biodistribution in ddY mouse large intestine at 4.8 MBq/0.1 mL after 1 min by gamma counting; assay type: ADME, organism-based; details: in vivo
Pancreas [20] = test: Biodistribution in ddY mouse pancreas at 4.8 MBq/0.1 mL after 15 mins by gamma countingeas; assay type: ADME, organism-based; details: in vivo, 0.25 h
[21] = Metabolic stability in monkey plasma assessed as unchanged drug level at 185 MBq/0.1 mL, iv after 5 mins; assay type: ADME, organism-based, Macaca mulatta; details: rhesus monkey, read-out: Stability
Liver [22] = test: Biodistribution in ddY mouse liver at 4.8 MBq/0.1 mL after 60 mins by gamma counting; assay type: ADME, organism-based; details: in vivo, 1 h
Mus musculus [23] = organism: Mus musculus; test: Biodistribution in ddY mouse testis at 4.8 MBq/0.1 mL after 90 mins by gamma counting; assay type: ADME, organism-based; details: in vivo, 1.5 h
[24] = Drug uptake in monkey thalamus assessed as distribution volume ratio at 185 to 220 MBq, iv after 10 to 90 mins by PET analysis; assay type: ADME, organism-based, Macaca mulatta; details: rhesus monkey, in vivo
Mus musculus [25] = organism: Mus musculus; test: Biodistribution in ddY mouse testis at 4.8 MBq/0.1 mL after 15 mins by gamma counting; assay type: ADME, organism-based; details: in vivo, 0.25 h
Heart [26] = test: Biodistribution in ddY mouse heart at 4.8 MBq/0.1 mL after 5 mins by gamma counting; assay type: ADME, organism-based; details: in vivo
Mus musculus [27] = organism: Mus musculus; test: Biodistribution in ddY mouse small intestine at 4.8 MBq/0.1 mL after 1 min by gamma counting; assay type: ADME, organism-based; details: in vivo
Lung [28] = test: Biodistribution in ddY mouse lung at 4.8 MBq/0.1 mL after 5 mins by gamma counting; assay type: ADME, organism-based; details: in vivo
Muscle tissue [29] = test: Biodistribution in ddY mouse muscle at 4.8 MBq/0.1 mL after 5 mins by gamma counting; assay type: ADME, organism-based; details: in vivo
Blood [30] = test: Biodistribution in ddY mouse blood at 4.8 MBq/0.1 mL after 15 mins by gamma counting; assay type: ADME, organism-based; details: in vivo, 0.25 h
Pancreas [31] = test: Biodistribution in ddY mouse pancreas at 4.8 MBq/0.1 mL after 5 mins by gamma countingeas; assay type: ADME, organism-based; details: in vivo
[32] = Drug uptake in monkey cerebellum assessed as distribution volume ratio at 185 to 220 MBq, iv after 10 to 90 mins by PET analysis; assay type: ADME, organism-based, Macaca mulatta; details: rhesus monkey, in vivo
[33] = Metabolic stability in monkey plasma assessed as unchanged drug level at 185 MBq/0.1 mL, iv after 60 mins; assay type: ADME, organism-based, Macaca mulatta; details: rhesus monkey, read-out: Stability
Muscle tissue [34] = test: Biodistribution in ddY mouse muscle at 4.8 MBq/0.1 mL after 90 mins by gamma counting; assay type: ADME, organism-based; details: in vivo, 1.5 h
Mus musculus [35] = organism: Mus musculus; test: Biodistribution in ddY mouse testis at 4.8 MBq/0.1 mL after 1 min by gamma counting; assay type: ADME, organism-based; details: in vivo
Brain [36] = test: Drug uptake in monkey brain at 185 to 220 MBq, iv after 10 to 60 mins by PET analysis in presence of unlabeled 4-(6-chloropyrimidin-4-yl)-N-methylthiazol-2-amine; assay type: ADME, organism-based, Macaca mulatta; details: rhesus monkey, in vivo
[37] = Drug uptake in monkey cingulate cortex assessed as distribution volume ratio at 185 to 220 MBq, iv after 10 to 90 mins by PET analysis; assay type: ADME, organism-based, Macaca mulatta; details: rhesus monkey, in vivo
Mus musculus [38] = organism: Mus musculus; test: Biodistribution in ddY mouse testis at 4.8 MBq/0.1 mL after 60 mins by gamma counting; assay type: ADME, organism-based; details: in vivo, 1 h
[39] = Drug uptake in monkey putamen at 185 to 220 MBq, iv after 10 mins by PET analysis; assay type: ADME, organism-based, Macaca mulatta; details: rhesus monkey, in vivo
Pancreas [40] = test: Biodistribution in ddY mouse pancreas at 4.8 MBq/0.1 mL after 30 mins by gamma countingeas; assay type: ADME, organism-based; details: in vivo, 0.5 h
[41] = Drug uptake in monkey thalamus at 185 to 220 MBq, iv after 10 to 60 mins by PET analysis; assay type: ADME, organism-based, Macaca mulatta; details: rhesus monkey, in vivo
Blood [42] = test: Biodistribution in ddY mouse blood at 4.8 MBq/0.1 mL after 30 mins by gamma counting; assay type: ADME, organism-based; details: in vivo, 0.5 h
[43] = Drug uptake in monkey thalamus at 185 to 220 MBq, iv after 20 mins by PET analysis; assay type: ADME, organism-based, Macaca mulatta; details: rhesus monkey, in vivo
Mus musculus [44] = organism: Mus musculus; test: Biodistribution in ddY mouse small intestine at 4.8 MBq/0.1 mL after 60 mins by gamma counting; assay type: ADME, organism-based; details: in vivo, 1 h
[45] = Drug uptake in monkey cingulate cortex at 185 to 220 MBq, iv after 10 to 60 mins by PET analysis; assay type: ADME, organism-based, Macaca mulatta; details: rhesus monkey, in vivo
Mus musculus [46] = organism: Mus musculus; test: Biodistribution in ddY mouse small intestine at 4.8 MBq/0.1 mL after 15 mins by gamma counting; assay type: ADME, organism-based; details: in vivo, 0.25 h
Mus musculus [47] = organism: Mus musculus; test: Biodistribution in ddY mouse large intestine at 4.8 MBq/0.1 mL after 90 mins by gamma counting; assay type: ADME, organism-based; details: in vivo, 1.5 h
[48] = Metabolic stability in Sprague-Dawley brain assessed as unchanged drug level at 37 MBq/0.1 mL, iv after 30 mins; assay type: ADME, organism-based; details: rat, read-out: Stability

Drug uptake [1]: Active | Drug uptake (Heart [2]): 0.27 % ID/g | Drug uptake (Spleen): 0.93 % ID/g | Drug uptake (Blood [3]): 0.05 % ID/g | Drug uptake (Liver [4]): 11.47 % ID/g | Drug uptake [5]: Active | Drug uptake (Blood [6]): 1.27 % ID/g | remaining at 0.25 h [7]: 43.1% | Drug uptake (Mus musculus [8]): 1.98 % ID/g | remaining at 0.5 h [9]: 39% | Drug uptake (Mus musculus [10]): 0.63 % ID/g | Drug uptake (Lung [11]): 0.86 % ID/g | Drug uptake (Brain [12]): 2.19 % ID/g | Ratio [13]: 1.5 | Drug uptake (Mus musculus [14]): 1.03 % ID/g | Drug uptake (Kidney [15]): 1.32 % ID/g | Drug uptake (Brain [16]): 1.99 % ID/g | Drug uptake (Brain [17]): 2.58 % ID/g | Drug uptake (Kidney [18]): 11.12 % ID/g | Drug uptake (Mus musculus [19]): 1.28 % ID/g | Drug uptake (Pancreas [20]): 0.3 % ID/g | remaining at 5 min [21]: 70.2% | Drug uptake (Liver [22]): 0.51 % ID/g | Drug uptake (Mus musculus [23]): 0.14 % ID/g | Ratio [24]: 2 | Drug uptake (Mus musculus [25]): 0.41 % ID/g | Drug uptake (Heart [26]): 1.28 % ID/g | Drug uptake (Mus musculus [27]): 10.07 % ID/g | Drug uptake (Lung [28]): 2.56 % ID/g | Drug uptake (Muscle tissue [29]): 0.96 % ID/g | Drug uptake (Blood [30]): 0.37 % ID/g | Drug uptake (Pancreas [31]): 1.23 % ID/g | Ratio [32]: 4.3 | remaining at 1 h [33]: 28.4% | Drug uptake (Muscle tissue [34]): 0.17 % ID/g | Drug uptake (Mus musculus [35]): 1.07 % ID/g | Drug uptake (Brain [36]): Not Active | Ratio [37]: 2.6 | Drug uptake (Mus musculus [38]): 0.13 % ID/g | Drug uptake [39]: Active | Drug uptake (Pancreas [40]): 0.06 % ID/g | Drug uptake [41]: Active | Drug uptake (Blood [42]): 0.14 % ID/g | SUV [43]: 0.8 | Drug uptake (Mus musculus [44]): 17.46 % ID/g | Drug uptake [45]: Active | Drug uptake (Mus musculus [46]): 41.52 % ID/g | Drug uptake (Mus musculus [47]): 7.02 % ID/g | remaining at 0.5 h [48]: 97%
Compound: CC(C)Nc1cc(-c2csc(N(C)C(=O)c3ccc([14CH3])cc3)n2)ncn1
